According to the NIST ThermoML archive (doi:10.1021/je060238o):

Columns and labels:
[1] = refractive index (Na D-line) (dimensionless); details: 298.15 K; 101.33 kPa; Liquid; Standard Abbe refractometry
[2] = Liquid; for mass density: 298.15 K, 101.33 kPa; for Normal boiling temperature: Ebulliometric method (Recirculating still)
[3] = xn = mol fraction of the nth substance listed; details: 298.15 K, 101 kPa, Liquid
[4] = refractive index (Na D-line) (dimensionless); xn = mol fraction of the nth substance listed; details: 298.15 K, 101 kPa, Liquid, Standard Abbe refractometry

CCC(C)CO (stereo unspecified) [2-methyl-1-butanol]
Details	Normal boiling temperature [°C]	mass density [kg/m3]	refractive index
[1]	–	–	1.40872
[2]	128.78	814.87	–

CCC(C)CO (stereo unspecified) [2-methyl-1-butanol] + CC(C)CO
Details	mass density, [3] [kg/m3]	refractive index, [4]
x2 = 0.051	814.19	1.40802
x2 = 0.101	813.53	1.40742
x2 = 0.151	812.85	1.40674
x2 = 0.2	812.17	1.40606
x2 = 0.25	811.49	1.40538
x2 = 0.3	810.75	1.40466
x2 = 0.35	810.03	1.40397
x2 = 0.401	809.29	1.40328
x2 = 0.45	808.55	1.40252
x2 = 0.5	807.79	1.40178
x2 = 0.549	807.02	1.40107
x2 = 0.599	806.25	1.40029
x2 = 0.65	805.45	1.39946
x2 = 0.701	804.63	1.39866
x2 = 0.749	803.86	1.3979
x2 = 0.8	803	1.39706
x2 = 0.85	802.17	1.3962
x2 = 0.899	801.17	1.39533
x2 = 0.95	800.1	1.3945

CC(C)CO [2-methyl-1-propanol]
Details	Normal boiling temperature [°C]	mass density [kg/m3]	refractive index
[1]	–	–	1.3937
[2]	108	797.84	–

CC(C)CO [2-methyl-1-propanol] + CCCCCO
Details	mass density, [3] [kg/m3]	refractive index, [4]
x1 = 0.05	810.3	1.4071
x1 = 0.1	809.7	1.4065
x1 = 0.15	809.09	1.40588
x1 = 0.2	808.51	1.40524
x1 = 0.249	807.94	1.4046
x1 = 0.299	807.34	1.40394
x1 = 0.35	806.75	1.40326
x1 = 0.4	806.13	1.40259
x1 = 0.45	805.53	1.40193
x1 = 0.499	804.9	1.40124
x1 = 0.549	804.29	1.40055
x1 = 0.6	803.64	1.39983
x1 = 0.65	803.01	1.3991
x1 = 0.699	802.41	1.39834
x1 = 0.75	801.73	1.39758
x1 = 0.8	801.07	1.39683
x1 = 0.85	800.39	1.39604
x1 = 0.9	799.67	1.39524
x1 = 0.95	798.84	1.39447

CC(C)CCO [3-methylbutan-1-ol]
Details	Normal boiling temperature [°C]	mass density [kg/m3]	refractive index
[1]	–	–	1.40515
[2]	131.12	806.78	–

CC(C)CCO [3-methylbutan-1-ol] + CC(C)CO
Details	mass density, [3] [kg/m3]	refractive index, [4]
x2 = 0.051	805.95	1.40469
x2 = 0.099	805.61	1.40418
x2 = 0.15	805.25	1.40371
x2 = 0.199	804.88	1.40318
x2 = 0.254	804.48	1.4026
x2 = 0.3	804.15	1.40212
x2 = 0.35	803.77	1.40161
x2 = 0.4	803.39	1.40109
x2 = 0.445	803.05	1.4006
x2 = 0.5	802.62	1.39997
x2 = 0.549	802.23	1.3994
x2 = 0.6	801.83	1.39879
x2 = 0.65	801.42	1.39821
x2 = 0.7	800.64	1.39764
x2 = 0.751	800.19	1.39701
x2 = 0.799	799.74	1.39636
x2 = 0.849	799.27	1.39567
x2 = 0.899	798.8	1.395
x2 = 0.95	798.31	1.39435

CCCCCO [pentan-1-ol]
Details	Normal boiling temperature [°C]	mass density [kg/m3]	refractive index
[1]	–	–	1.4077
[2]	137.70	810.96	–
